Key:
Test in all cases: KinomeScan kinase profiling
Format in all cases: binding
AKT2 = molecular target: T1, AKT2 (Homo sapiens, UniProt P31751)
T1 construct: host or cells: E. coli host derived from BL21 (T7 phage lysate)

EPHA2 = molecular target: T2, EPHA2 (Homo sapiens, UniProt P29317)
T2 construct: host or cells: E. coli host derived from BL21, T7 phage lysate

FGFR2 = molecular target: T3, FGFR2 (Homo sapiens, UniProt P21802)
T3 construct: host or cells: E. coli host derived from BL21, infected with T7 phage

PIP5K2B = molecular target: T4, PIP5K2B (Homo sapiens, UniProt P78356)
T4 construct: purchased Ambit Biosciences Corp (KinomeScan); host or cells: E. coli host derived from BL21, infected with T7 phage

ACVRL1 = molecular target: T5, ACVRL1 (Homo sapiens, UniProt P37023)
T5 construct: host or cells: E. coli host derived from BL21 (T7 phage lysate)

CDK9 = molecular target: T6, CDK9 (Homo sapiens, UniProt P50750)
T6 construct: host or cells: T7 phage in E. coli (BL21-derived)

PAK3 = molecular target: T7, PAK3 (Homo sapiens, UniProt O75914)
T7 construct: host or cells: E. coli host derived from the BL21 strain, infected with T7 phage
Method in brief: (§1)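 Kinases were expressed as T7 phage fusions in a BL21-derived E. coli host and the cleared lysates were used. Ligand beads were blocked with biotin and buffer (1% BSA, 0.05% Tween 20, 1 mM DTT). Compounds came from 40× DMSO stocks, and phage in the eluates was titred by qPCR.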

CSNK1E = molecular target: T8, CSNK1E (Homo sapiens, UniProt P49674)
T8 construct: host or cells: T7 phage in E. coli (BL21-derived)
Method in brief: as §1

EPHA8 = molecular target: T9, EPHA8 (Homo sapiens, UniProt P29322)
T9 construct: host or cells: E. coli host derived from BL21, T7 phage lysate
Method in brief: as §1

CSNK2A1 = molecular target: T10, CSNK2A1 (Homo sapiens, UniProt P68400)
T10 construct: purchased Ambit Biosciences Corp (KinomeScan); host or cells: T7 phage in E. coli host derived from BL21
Method in brief: as §1

PIM1 = molecular target: T11, PIM1 (Homo sapiens, UniProt P11309)
T11 construct: purchased Ambit Biosciences Corp (KinomeScan); host or cells: E. coli host derived from BL21, infected with T7 phage
Method in brief: as §1

ERK1 = molecular target: T12, ERK1 (Homo sapiens, UniProt P27361)
T12 construct: host or cells: E. coli host derived from BL21, T7 phage lysate
Method in brief: as §1

ABL2 = molecular target: T13, ABL2 (Homo sapiens, UniProt P42684)
T13 construct: host or cells: E. coli host derived from BL21 (T7 phage lysate)
Method in brief: as §1

ERK5 = molecular target: T14, ERK5 (Homo sapiens, UniProt Q13164)
T14 construct: host or cells: E. coli host derived from BL21, T7 phage lysate
Method in brief: as §1

HIPK1 = molecular target: T15, HIPK1 (Homo sapiens, UniProt Q86Z02)
T15 construct: host or cells: E. coli host derived from BL21, infected with T7 phage
Method in brief: as §1

IKK-epsilon = molecular target: T16, IKK-epsilon (Homo sapiens, UniProt Q14164)
T16 construct: host or cells: T7 phage in E. coli host derived from BL21
Method in brief: as §1

FGFR4 = molecular target: T17, FGFR4 (Homo sapiens, UniProt P22455)
T17 construct: host or cells: E. coli host derived from BL21, infected with T7 phage
Method in brief: as §1

TTK = molecular target: T18, TTK (Homo sapiens, UniProt P33981)
T18 construct: purchased Ambit Biosciences Corp (KinomeScan); host or cells: E. coli host derived from the BL21 strain (T7 phage lysate)
Method in brief: as §1

[1] = molecular target: T19, RPS6KA1 (Kin.Dom.-2-C-terminal) (Homo sapiens, UniProt Q15418)
T19 construct: RPS6KA1 (Kin.Dom.-2-C-terminal); host or cells: E. coli host derived from BL21, T7 phage lysate

MAPKAPK2 = molecular target: T20, MAPKAPK2 (Homo sapiens, UniProt P49137)
T20 construct: host or cells: E. coli derived from BL21, infected with T7 phage

STK33 = molecular target: T21, STK33 (Homo sapiens, UniProt Q9BYT3)
T21 construct: host or cells: E. coli host derived from the BL21 strain, T7 phage lysate

CDC2L1 = molecular target: T22, CDC2L1 (Homo sapiens, UniProt P21127)
T22 construct: host or cells: T7 phage in E. coli (BL21-derived)

T2 sequence (P29317 24-976): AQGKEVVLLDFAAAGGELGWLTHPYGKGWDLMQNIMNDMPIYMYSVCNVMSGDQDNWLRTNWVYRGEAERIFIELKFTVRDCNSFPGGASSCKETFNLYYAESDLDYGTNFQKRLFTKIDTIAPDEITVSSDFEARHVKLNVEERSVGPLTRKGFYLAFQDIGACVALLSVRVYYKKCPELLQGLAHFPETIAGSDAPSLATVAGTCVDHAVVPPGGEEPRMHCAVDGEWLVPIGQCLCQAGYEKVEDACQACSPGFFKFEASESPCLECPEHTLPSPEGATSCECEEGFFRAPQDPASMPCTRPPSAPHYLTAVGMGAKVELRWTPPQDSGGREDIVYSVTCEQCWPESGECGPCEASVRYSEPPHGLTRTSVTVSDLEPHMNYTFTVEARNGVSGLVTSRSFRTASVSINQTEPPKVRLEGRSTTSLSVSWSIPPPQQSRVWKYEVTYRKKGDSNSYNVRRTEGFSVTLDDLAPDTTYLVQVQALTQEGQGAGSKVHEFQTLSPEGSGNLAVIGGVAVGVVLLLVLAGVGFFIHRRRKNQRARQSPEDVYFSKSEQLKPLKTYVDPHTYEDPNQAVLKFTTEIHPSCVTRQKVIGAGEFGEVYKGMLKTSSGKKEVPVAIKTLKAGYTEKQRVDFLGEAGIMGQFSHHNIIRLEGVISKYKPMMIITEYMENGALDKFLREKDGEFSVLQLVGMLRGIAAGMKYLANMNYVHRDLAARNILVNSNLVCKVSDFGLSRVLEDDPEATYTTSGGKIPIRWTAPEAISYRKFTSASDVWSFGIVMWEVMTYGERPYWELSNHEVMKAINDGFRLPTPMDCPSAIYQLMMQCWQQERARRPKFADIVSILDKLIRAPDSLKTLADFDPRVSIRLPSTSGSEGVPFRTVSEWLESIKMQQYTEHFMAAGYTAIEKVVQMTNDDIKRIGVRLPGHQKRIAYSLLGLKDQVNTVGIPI
T16 sequence (Q14164 whole entry): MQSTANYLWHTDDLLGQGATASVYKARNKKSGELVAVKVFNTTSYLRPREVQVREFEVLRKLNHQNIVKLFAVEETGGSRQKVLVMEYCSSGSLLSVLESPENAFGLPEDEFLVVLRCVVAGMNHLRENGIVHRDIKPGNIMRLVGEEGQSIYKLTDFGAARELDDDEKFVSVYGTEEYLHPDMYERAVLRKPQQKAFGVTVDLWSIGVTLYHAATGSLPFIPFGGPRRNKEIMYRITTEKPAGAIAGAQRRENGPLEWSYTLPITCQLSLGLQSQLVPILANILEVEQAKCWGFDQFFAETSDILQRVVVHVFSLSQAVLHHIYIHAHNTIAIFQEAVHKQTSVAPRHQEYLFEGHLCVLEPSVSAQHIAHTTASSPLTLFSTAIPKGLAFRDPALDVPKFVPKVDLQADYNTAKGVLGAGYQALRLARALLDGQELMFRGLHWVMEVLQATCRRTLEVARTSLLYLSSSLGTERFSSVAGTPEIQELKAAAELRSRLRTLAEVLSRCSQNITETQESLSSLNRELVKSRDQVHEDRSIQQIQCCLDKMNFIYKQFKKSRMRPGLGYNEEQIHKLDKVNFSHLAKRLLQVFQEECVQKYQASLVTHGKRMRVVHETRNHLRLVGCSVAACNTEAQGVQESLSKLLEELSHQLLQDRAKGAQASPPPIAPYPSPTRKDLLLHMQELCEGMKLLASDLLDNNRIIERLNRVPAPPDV
T11 sequence (P11309 whole entry): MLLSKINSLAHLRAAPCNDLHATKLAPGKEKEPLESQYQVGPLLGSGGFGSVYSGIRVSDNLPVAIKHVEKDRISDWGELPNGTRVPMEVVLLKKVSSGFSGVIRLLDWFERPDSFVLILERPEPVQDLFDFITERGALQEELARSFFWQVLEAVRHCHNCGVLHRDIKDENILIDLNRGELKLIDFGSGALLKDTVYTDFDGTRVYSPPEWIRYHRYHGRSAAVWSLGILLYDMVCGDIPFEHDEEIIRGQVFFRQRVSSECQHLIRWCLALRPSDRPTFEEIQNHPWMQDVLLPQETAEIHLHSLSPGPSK
T14 sequence (Q13164 whole entry): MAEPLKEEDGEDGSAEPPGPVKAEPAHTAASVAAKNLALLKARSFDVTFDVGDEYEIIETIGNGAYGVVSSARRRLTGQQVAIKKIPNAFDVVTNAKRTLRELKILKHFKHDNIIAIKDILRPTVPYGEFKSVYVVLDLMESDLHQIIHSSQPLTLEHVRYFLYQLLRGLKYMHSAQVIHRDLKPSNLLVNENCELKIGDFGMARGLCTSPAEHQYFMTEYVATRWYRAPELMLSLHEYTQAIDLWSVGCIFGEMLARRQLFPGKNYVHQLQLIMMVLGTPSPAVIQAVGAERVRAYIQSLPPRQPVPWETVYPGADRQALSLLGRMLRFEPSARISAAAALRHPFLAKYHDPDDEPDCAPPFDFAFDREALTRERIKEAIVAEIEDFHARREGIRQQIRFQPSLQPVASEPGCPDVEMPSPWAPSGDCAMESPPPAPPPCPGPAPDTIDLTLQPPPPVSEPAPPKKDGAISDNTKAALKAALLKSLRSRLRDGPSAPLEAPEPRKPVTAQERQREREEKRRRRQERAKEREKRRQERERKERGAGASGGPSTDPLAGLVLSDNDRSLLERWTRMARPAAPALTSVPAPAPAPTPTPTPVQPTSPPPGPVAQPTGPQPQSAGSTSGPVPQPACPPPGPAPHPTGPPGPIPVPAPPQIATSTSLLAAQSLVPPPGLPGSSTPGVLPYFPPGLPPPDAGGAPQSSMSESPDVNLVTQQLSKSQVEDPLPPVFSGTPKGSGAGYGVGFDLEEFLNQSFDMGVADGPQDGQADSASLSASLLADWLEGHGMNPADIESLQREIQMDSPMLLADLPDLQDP
T19 sequence (Q15418 418-675 limits assumed): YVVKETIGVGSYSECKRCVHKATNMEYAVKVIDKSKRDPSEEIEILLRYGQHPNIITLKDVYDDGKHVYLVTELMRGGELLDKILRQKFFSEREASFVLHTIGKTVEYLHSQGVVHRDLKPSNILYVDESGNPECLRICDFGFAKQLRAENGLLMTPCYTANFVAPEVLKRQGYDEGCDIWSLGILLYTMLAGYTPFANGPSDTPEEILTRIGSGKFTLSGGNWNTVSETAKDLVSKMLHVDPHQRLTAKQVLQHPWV
T3 sequence (P21802 22-821): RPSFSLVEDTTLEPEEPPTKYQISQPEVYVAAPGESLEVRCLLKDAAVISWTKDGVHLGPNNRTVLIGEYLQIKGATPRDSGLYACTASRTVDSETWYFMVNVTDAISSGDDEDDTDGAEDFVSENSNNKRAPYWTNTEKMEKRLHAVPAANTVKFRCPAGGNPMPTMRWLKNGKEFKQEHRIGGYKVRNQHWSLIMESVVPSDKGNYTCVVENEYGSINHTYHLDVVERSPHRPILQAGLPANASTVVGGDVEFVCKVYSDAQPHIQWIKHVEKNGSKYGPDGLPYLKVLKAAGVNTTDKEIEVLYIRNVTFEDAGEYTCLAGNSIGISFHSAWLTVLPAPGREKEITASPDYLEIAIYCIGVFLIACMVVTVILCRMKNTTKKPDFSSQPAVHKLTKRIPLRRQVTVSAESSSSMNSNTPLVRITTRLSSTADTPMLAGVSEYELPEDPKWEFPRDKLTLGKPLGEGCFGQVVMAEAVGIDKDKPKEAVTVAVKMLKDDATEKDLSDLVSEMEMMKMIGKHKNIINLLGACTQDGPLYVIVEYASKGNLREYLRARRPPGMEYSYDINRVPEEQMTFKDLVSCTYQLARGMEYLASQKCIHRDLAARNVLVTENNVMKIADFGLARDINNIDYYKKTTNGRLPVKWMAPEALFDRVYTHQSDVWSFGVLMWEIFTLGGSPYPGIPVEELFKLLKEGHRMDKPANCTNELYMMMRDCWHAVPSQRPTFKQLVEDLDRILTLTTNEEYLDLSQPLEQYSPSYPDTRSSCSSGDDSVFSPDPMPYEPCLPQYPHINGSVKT
T6 sequence (P50750 whole entry): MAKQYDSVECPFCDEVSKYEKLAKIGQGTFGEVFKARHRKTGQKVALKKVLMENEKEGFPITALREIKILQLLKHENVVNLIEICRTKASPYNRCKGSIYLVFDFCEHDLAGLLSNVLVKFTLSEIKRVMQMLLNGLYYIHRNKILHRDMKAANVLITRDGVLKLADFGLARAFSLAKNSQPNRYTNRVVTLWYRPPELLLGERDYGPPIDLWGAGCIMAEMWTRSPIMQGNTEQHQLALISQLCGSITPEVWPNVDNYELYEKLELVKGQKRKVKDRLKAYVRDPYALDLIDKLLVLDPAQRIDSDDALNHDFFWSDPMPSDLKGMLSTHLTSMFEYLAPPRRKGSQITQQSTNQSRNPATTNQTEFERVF
T5 sequence (P37023 22-503): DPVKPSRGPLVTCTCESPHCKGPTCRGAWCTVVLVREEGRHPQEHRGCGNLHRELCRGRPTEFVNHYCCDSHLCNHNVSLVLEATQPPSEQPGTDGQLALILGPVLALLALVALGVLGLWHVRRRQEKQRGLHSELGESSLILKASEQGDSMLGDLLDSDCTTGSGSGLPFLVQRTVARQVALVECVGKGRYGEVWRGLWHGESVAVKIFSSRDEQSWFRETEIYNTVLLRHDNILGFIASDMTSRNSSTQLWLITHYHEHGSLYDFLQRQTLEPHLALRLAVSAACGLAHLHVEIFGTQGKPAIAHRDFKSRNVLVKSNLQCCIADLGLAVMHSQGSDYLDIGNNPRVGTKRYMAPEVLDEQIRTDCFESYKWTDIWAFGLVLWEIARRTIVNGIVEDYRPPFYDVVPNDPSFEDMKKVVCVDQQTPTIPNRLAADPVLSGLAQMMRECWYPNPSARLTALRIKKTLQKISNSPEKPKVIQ

C#Cc1cccc(Nc2ncnc3cc(OC)c(OCCCN4CCOCC4)cc23)c1 [NRC-2694, N-(3-ethylnylphenyl)-7-methoxy-6-[3-(4-morpholinyl)propoxy]-4-quinazolinamine]
% Ctrl @ 10000 nM (AKT2): 100 % Ctrl
% Ctrl @ 10000 nM (EPHA2): 100 % Ctrl
% Ctrl @ 10000 nM (FGFR2): 100 % Ctrl
% Ctrl @ 10000 nM (PIP5K2B): 49 % Ctrl
% Ctrl @ 10000 nM (ACVRL1): 91 % Ctrl
% Ctrl @ 10000 nM (CDK9): 86 % Ctrl
% Ctrl @ 10000 nM (PAK3): 55 % Ctrl
% Ctrl @ 10000 nM (CSNK1E): 9.6 % Ctrl
% Ctrl @ 10000 nM (EPHA8): 66 % Ctrl
% Ctrl @ 10000 nM (CSNK2A1): 56 % Ctrl
% Ctrl @ 10000 nM (PIM1): 39 % Ctrl
% Ctrl @ 10000 nM (ERK1): 98 % Ctrl
% Ctrl @ 10000 nM (ABL2): 43 % Ctrl
% Ctrl @ 10000 nM (ERK5): 90 % Ctrl
% Ctrl @ 10000 nM (HIPK1): 70 % Ctrl
% Ctrl @ 10000 nM (IKK-epsilon): 75 % Ctrl
% Ctrl @ 10000 nM (FGFR4): 69 % Ctrl
% Ctrl @ 10000 nM (TTK): 48 % Ctrl
% Ctrl @ 10000 nM [1]: 49 % Ctrl
% Ctrl @ 10000 nM (MAPKAPK2): 90 % Ctrl
% Ctrl @ 10000 nM (STK33): 43 % Ctrl
% Ctrl @ 10000 nM (CDC2L1): 42 % Ctrl
